Results from ChEMBL document CHEMBL5230122, “Natural products and other inhibitors of F1FO ATP synthase” (Eur J Med Chem, 2020).
Converted amounts (≈) assume the structure as drawn. Square brackets hold non-standard residues; d marks the D form. Peptide text beside a SMILES is read from it. * marks the point of attachment. Leu(3R-OH) = CC(C)[C@@H](O)[C@H](N)C(=O)O; NH((S)CH(Me)CH2NMe2) = C[C@@H](CN(C)C)N*; Pro(4S-Me) = C[C@@H]1CN[C@H](C(=O)O)C1; X1 = CC[C@@H](C)/C=C/C(=O)*; Aib = CC(C)(N)C(=O)O; βAla = NCCC(=O)O

Tests used:
[1] = Inhibition of yeast mitochondrial F0F1-ATPase assessed as inhibition constant measured after 20 mins in presence of NADH and ATP by microplate reader analysis; assay type: mitochondria, Saccharomyces cerevisiae, Mitochondria
[2] = Inhibition of yeast mitochondrial F0F1-ATPase incubated for 15 mins by colorimetric assay; assay type: mitochondria, Saccharomyces cerevisiae, Mitochondria
[3] = Inhibition of bovine heart mitochondrial F0F1-ATP synthase incubated for 15 mins by colorimetric assay; assay type: mitochondria, Bos taurus, Mitochondria
KB 3-1 = assay: Antiproliferative activity against human KB-3-1 cells assessed as decrease in cellular ATP content and measured after 2 days by CellTiter-Glo luminescent assay; assay type: functional, cell-based; settings: KB 3-1, 48 h
KB-V1 = assay: Antiproliferative activity against human KB-V1 cells assessed as decrease in cellular ATP content and measured after 2 days by CellTiter-Glo luminescent assay; assay type: functional, cell-based; settings: KB-V1, 48 h
K562 = assay: Antiproliferative activity against human K562 cells assessed as decrease in cellular ATP content and measured after 2 days by CellTiter-Glo luminescent assay; assay type: functional, cell-based; settings: K562, 48 h
U-937 = assay: Antiproliferative activity against human U-937 cells assessed as decrease in cellular ATP content and measured after 2 days by CellTiter-Glo luminescent assay; assay type: functional, cell-based; settings: U-937, 48 h
A549 [4] = assay: Antiproliferative activity against human A549 cells assessed as decrease in cellular ATP content and measured after 2 days by CellTiter-Glo luminescent assay; assay type: functional, cell-based; settings: A549, 48 h
A498 = assay: Antiproliferative activity against human A498 cells assessed as decrease in cellular ATP content and measured after 2 days by CellTiter-Glo luminescent assay; assay type: functional, cell-based; settings: A498, 48 h
SK-OV-3 = assay: Antiproliferative activity against human SK-OV-3 cells assessed as decrease in cellular ATP content and measured after 2 days by CellTiter-Glo luminescent assay; assay type: functional, cell-based; settings: SK-OV-3, 48 h
[5] = Cytotoxicity against mouse L929 cells assessed as reduction in cell viability; assay type: toxicity, cell-based
[6] = Inhibition of bovine heart mitochondrial F0F1-ATP synthase F0 domain assessed as reduction in rate of NADH oxidation for 30 mins by colorimetric assay; assay type: mitochondria, Bos taurus, Mitochondria
DU-145 [7] = assay: Antiproliferative activity against human DU-145 cells assessed as reduction in cell viability incubated for 3 days by rhodanile-blue dye based microplate reader analysis; assay type: functional; settings: DU-145, 72 h
DU-145 [8] = assay: Antiproliferative activity against human DU-145 cells assessed as reduction in cell viability preincubated with PrSCs cells for 2 days followed by co-culture with DU-145 for 3 days by rhodanile-blue dye based microplate reader analysis; assay type: functional
[9] = Acute toxicity in mouse assessed as maximum tolerated dose; settings: in vivo
P388 [10] = assay: Anticancer activity against mouse P388 cells assessed as reduction in cell viability incubated for 96 hrs by MTT assay; assay type: functional, cell-based; settings: P388, 96 h
P388 [11] = assay: Anticancer activity against mouse P388 cells assessed as reduction in cell viability incubated for 48 hrs by sulforhodamine B (SRB) assay; assay type: functional, cell-based; settings: P388, 48 h
MCF7 [12] = assay: Anticancer activity against human MCF7 cells assessed as reduction in cell viability incubated for 48 hrs by sulforhodamine B (SRB) assay; assay type: functional, cell-based; settings: MCF7, 48 h
[13] = Inhibition of bovine heart mitochondrial F0F1-ATPase assessed as reduction in ATP synthesis by fluorescence assay; assay type: mitochondria, Bos taurus, Mitochondria
[14] = Inhibition of bovine heart mitochondrial F0F1-ATPase assessed as decrease in rate of ATP hydrolysis by fluorescence assay; assay type: mitochondria, Bos taurus, Mitochondria
T47D = assay: Antiproliferative activity against human T47D cells assessed as reduction in cell viability incubated for 48 hrs by MTT assay; assay type: functional, cell-based
MDA-MB-231 = assay: Antiproliferative activity against human MDA-MB-231 cells assessed as reduction in cell viability incubated for 48 hrs by MTT assay; assay type: functional, cell-based; settings: MDA-MB-231, 48 h
MCF7 [15] = assay: Antiproliferative activity against human MCF7 cells assessed as reduction in cell viability incubated for 48 hrs by MTT assay; assay type: functional, cell-based; settings: MCF7, 48 h
HL-60 = assay: Antiproliferative activity against human HL-60 cells assessed as reduction in cell viability incubated for 48 hrs by MTT assay; assay type: functional, cell-based; settings: HL-60, 48 h
SMMC-7721 = assay: Antiproliferative activity against human SMMC-7721 cells assessed as reduction in cell viability incubated for 48 hrs by MTT assay; assay type: functional, cell-based; settings: SMMC-7721, 48 h
A549 [16] = assay: Antiproliferative activity against human A549 cells assessed as reduction in cell viability incubated for 48 hrs by MTT assay; assay type: functional, cell-based; settings: A549, 48 h
SW480 = assay: Antiproliferative activity against human SW480 cells assessed as reduction in cell viability incubated for 48 hrs by MTT assay; assay type: functional, cell-based; settings: SW480, 48 h
NCI-H460 = assay: Antiproliferative activity against human NCI-H460 cells assessed as reduction in cell viability incubated for 48 hrs by MTT assay; assay type: functional, cell-based; settings: NCI-H460, 48 h
N2a = assay: Antiproliferative activity against mouse Neuro2a cells assessed as reduction in cell viability incubated for 48 hrs by MTT assay; assay type: functional, cell-based

## COC[C@@H](C[C@H]1O[C@@](O)([C@@H]2OC(=O)/C(C)=C/C(C)=C/C(C)=C/[C@@H](C)[C@H](O[C@@H]3O[C@@H](C)[C@H](OC)[C@@H](O)[C@@H]3O)/C=C/C(C)=C/CC[C@H](O)[C@@H](OC)C[C@@H]2O)[C@H](C)[C@@H](O)[C@H]1C)O[C@H]1C[C@](C)(O)[C@@H](O[C@H]2C[C@@H](OC)[C@H](O)[C@@H](C)O2)[C@H](C)O1
[1]
  Ki: 17000 nM

## CCC[C@H](O)[C@@H](C)C(=O)NC/C=C\C[C@@H](C)[C@@H](O)[C@H](C)[C@@H]1C/C=C\C[C@H](C)[C@H](O)Cc2cc(OC)cc(O)c2C(=O)O1
[2]
  IC50: 15 nM
[3]
  IC50: 15 nM
KB 3-1
  IC50: 0.3 ng/mL (≈ 0.509 nM)
KB-V1
  IC50: 0.6 ng/mL (≈ 1.02 nM)
K562
  IC50: 0.6 ng/mL (≈ 1.02 nM)
U-937
  IC50: 0.1 ng/mL (≈ 0.17 nM)
A549 [4]
  IC50: 0.4 ng/mL (≈ 0.678 nM)
A498
  IC50: 0.4 ng/mL (≈ 0.678 nM)
SK-OV-3
  IC50: 1 ng/mL (≈ 1.7 nM)
[5]
  IC50: 1.2 ng/mL (≈ 2.03 nM)

## CC[C@@H](C)/C=C/C(=O)N1C[C@@H](C)C[C@H]1C(=O)N[C@@H](C)C(=O)N[C@H](C(=O)NC(C)(C)C(=O)N[C@@H](CC(C)C)C(=O)N[C@@H](CC(C)C)C(=O)NC(C)(C)C(=O)NC(C)(C)C(=O)NCCC(=O)N[C@@H](C)CN(C)C)[C@H](O)C(C)C (X1-[Pro(4S-Me)]A[Leu(3R-OH)][Aib]LL[Aib][Aib][βAla]-{NH((S)CH(Me)CH2NMe2)})
[6]
  IC50: 2800 ng/mL (≈ 2600 nM)
DU-145 [7]
  IC50: > 1000 ng/mL
DU-145 [8]
  IC50: 210 ng/mL (≈ 195 nM)
[9]
  MTD: 12.5 mg/kg

## CC/C(C)=C(\NC(=O)[C@@H](NC(=O)CC(=O)[C@@H](C)CC(C)C)[C@](C)(O)CC)C(=O)N[C@@H](C)C(=O)N/C(C(=O)N[C@@H](C(=O)N[C@@H](C(=O)N[C@@H](C(=O)N[C@H](C(=O)N/C(C(=O)N[C@H](C)C(=O)N[C@@H](C(=O)N[C@H](C(=O)NC(C(=O)N[C@H](CN(C)C)C(C)C)=C(C)C)C(C)C)C(C)C)=C(\C)CC)C(C)(C)O)C(C)(C)O)[C@@H](C)CC)C(C)C)=C(\C)CC
P388 [10]
  IC50: 0.51 nM
P388 [11]
  IC50: 10 nM
MCF7 [12]
  IC50: 10 nM

## CC[C@H]1O[C@@]2(C)[C@H](OC(C)=O)[C@@]1(C)O[C@@H](/C=C/C=C/C=C/c1oc(=O)cc(OC)c1C)[C@@H]2O
[13]
  Ki: 25 nM
[14]
  Ki: 120 nM
T47D
  IC50: 890 nM
MDA-MB-231
  IC50: 5520 nM
MCF7 [15]
  IC50: 90 nM
HL-60
  IC50: 14700 nM
SMMC-7721
  IC50: 10800 nM
A549 [16]
  IC50: 14700 nM
SW480
  IC50: 22400 nM

## CO[C@H]1[C@H](O[C@@H]2C[C@@H]3C/C=C/C(=O)O[C@H](CO)C[C@H](O)[C@@H]4C[C@H](C)[C@H](/C=C\C=C\[C@H](C)C[C@H](C2)O3)O4)O[C@@H](C)[C@H](O)[C@H]1O
NCI-H460
  IC50: 12 nM
N2a
  IC50: 44 nM
